Source: patent US20220330549A1, “USE OF N-BENZYLBENZAMIDE-BASED COMPOUND AS HERBICIDE” (Northwest A&F University, priority 2020, published 2022)

Tests used:
Type in all cases: in vivo
Digitaria sanguinalis [1] = assay: Herbicidal activity test for indoor pre-emergence soil treatment; set-up: key: 1-9 levels; higher = more weed remaining vs blank control; details: 150 g a.i./ha, visual inspection 21 days after treatment
Summary of the method: (§1)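 Pre-emergence test following NY/T 1155.3-2006: weed seeds were sown in moistened neutral sandy loam (≤2% organic matter) and covered with 0.5–2.0 cm of soil. After 24 h, the soil was sprayed with a 10% EC diluted in water at 150 g(a.i.)/ha. Damage was scored visually on a 1–9 scale at 21 days.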

Amaranthus retroflexus [2] = assay: as above; set-up: key: 1-9 levels; higher = more weed remaining vs blank control; details: 150 g a.i./ha, visual inspection 21 days after treatment
Summary of the method: as §1

Cyperaceae = assay: Post-emergence herbicidal activity test in a paddy field; set-up: key: level scale; higher level = more weed left vs blank control; details: 150 g a.i./ha (penoxsulam control 250 g(a.i.)/h)
Summary of the method: (§2)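 Efficacy was visually estimated 15 and 30 days after spraying, grading weed coverage relative to an untreated neighbouring plot (level 2 = 0 to 2.5%, level 9 = 67.6 to 100%). Treatments were 150 g(a.i.)/ha from 10% emulsifiable concentrates applied at the 4-5 leaf rice stage, four repeats of 50 m^2 each.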

Gramineae = assay: as above; set-up: key: level scale; higher level = more weed left vs blank control; details: 150 g a.i./ha (penoxsulam control 250 g(a.i.)/h)
Summary of the method: as §2

Broadleaf weed = assay: as above; set-up: key: level scale; higher level = more weed left vs blank control; details: 150 g a.i./ha (penoxsulam control 250 g(a.i.)/h)
Summary of the method: as §2

Barnyard grass [3] = assay: Field test for weed control in a corn field; details: 150 g a.i./ha, 30 days after treatment
Summary of the method: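 Herbicidal activity against barnyard grass was assessed in corn field plots of 20 m^2, with four replicates per treatment. Compounds were applied as water-diluted 10% emulsifiable concentrates at 150 g(a.i.)/ha at the 2-5 leaf corn stage, with 25% mesotrione oil dispersion as the reference agent. Damage was scored on a 1-9 scale against untreated blank plots.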

Solanum nigrum = assay: Field test for weed control in a corn field; details: 150 g a.i./ha, 30 days after treatment
Summary of the method: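 In a corn field trial based on GB/T 17980.42-2000, 10% emulsifiable concentrates diluted in water were sprayed at 150 g(a.i.)/ha at the 2 to 5 leaf stage of corn. Each treatment used 20 m^2 plots and was repeated 4 times, with 25% mesotrione oil dispersion as the reference agent. Solanum nigrum damage was scored on a 1-9 scale against blank control plots.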

Convolvulus arvensis = assay: Field test for weed control in a corn field; details: 150 g a.i./ha, after treatment
Summary of the method: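 Post-emergence herbicidal activity on Convolvulus arvensis was scored in a corn field on a 1-9 scale, based on symptoms and damage severity. Each level corresponds to the weed remaining as a percentage of the blank control area. Sprays of 10% emulsifiable concentrate at 150 g(a.i.)/ha went on at the corn 2–5 leaf stage, with four replicates of 20 m^2 per treatment.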

Chenopodium album = assay: Field test for weed control in a corn field; details: 150 g a.i./ha, after treatment
Summary of the method: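 Field weed-control testing in corn, run per GB/T 17980.42-2000, scored Chenopodium album on a 1-9 level scale, where each level matches a percentage range of weed remaining relative to the blank control area. Sprays of 10% emulsifiable concentrates in water delivered 150 g(a.i.)/ha at the corn 2-leaf to 5-leaf stage on 20 m^2 plots, four replicates each. Mesotrione 25% oil dispersion served as reference.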

goosegrass = assay: Field test for weed control in a corn field; details: 150 g a.i./ha, after treatment
Summary of the method: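 In this field trial in corn, run per GB/T 17980.42-2000, test agents prepared as 10% emulsifiable concentrates were applied in water as sprays at 150 g(a.i.)/ha at the 2- to 5-leaf corn stage. Each treatment covered 20 m^2 and was repeated 4 times. Goosegrass control was scored 1-9 relative to weed remaining in blank control areas.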

Digitaria sanguinalis [4] = assay: Field test for weed control in a corn field; details: 150 g a.i./ha, after treatment
Summary of the method: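 Field trial in a corn field following GB/T 17980.42-2000. Test compounds were formulated as 10% emulsifiable concentrates, diluted in water and sprayed post-emergence at 150 g(a.i.)/ha when corn had 2 to 5 leaves, with 4 replicates on 20 m^2 plots. Control of Digitaria sanguinalis was scored on a 1-9 scale based on weed damage relative to the untreated blank area.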

Acalypha australis = assay: Field test for weed control in a corn field; details: 150 g a.i./ha, after treatment
Summary of the method: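 Herbicidal activity against weeds was assessed in corn plots by the GB/T 17980.42-2000 method. Corn at the 2–5 leaf stage received water sprays of 10% emulsifiable concentrates at 150 g(a.i.)/ha, four repeats per treatment over 20 m^2. A 25% mesotrione oil dispersion was the reference. Damage symptoms and severity were rated on levels 1-9 relative to weeds in the blank control area.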

nutgrass flatsedge = assay: Field test for weed control in a corn field; details: 150 g a.i./ha, after treatment
Summary of the method: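 Herbicidal effect on nutgrass flatsedge was measured in a field planted with corn, using the GB/T 17980.42-2000 method. Emulsifiable concentrates (10%) in water were sprayed at 150 g(a.i.)/ha during the 2-leaf to 5-leaf corn stage, on 20 m^2 plots repeated 4 times. 25% mesotrione oil dispersion was the control agent. Activity was scored from 1 to 9 by weed remaining relative to blank control plots.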

Portulaca oleracea = assay: Field test for weed control in a corn field; details: 150 g a.i./ha, after treatment
Summary of the method: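 Post-emergence weed control was evaluated in a corn field by the GB/T 17980.42-2000 method. Emulsifiable concentrates (10%) in water were applied as sprays at 150 g(a.i.)/ha at the 2-5 leaf corn stage, in four replicate 20 m^2 plots. A 25% mesotrione oil dispersion served as control agent. Effects were graded 1-9 relative to weed remaining in blank control areas.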

Amaranthus retroflexus [5] = assay: Field test for weed control in a corn field; details: 150 g a.i./ha, 30 days after treatment
Summary of the method: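 Post-emergence control of Amaranthus retroflexus was assessed in corn plots using the GB/T 17980.42-2000 method. Emulsifiable concentrates (10%) in water were applied by spraying at the 2- to 5-leaf crop stage on 20 m^2 plots, four replicates each, alongside a mesotrione 25% oil dispersion reference. Herbicidal activity was scored on 1-9 levels by weed amount relative to blank control areas.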

green bristlegrass [6] = assay: Field test for weed control in a corn field; details: 150 g a.i./ha, after treatment
Summary of the method: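 Herbicidal activity against green bristlegrass was assessed in corn field plots of 20 m^2 per GB/T 17980.42-2000. Test agents, formulated as 10% emulsifiable concentrates, were applied in water at 150 g(a.i.)/ha at the corn 2 leaves to 5 leaves stage, repeated 4 times. A 25% mesotrione oil dispersion served as the control agent, and weed damage was rated on levels 1-9.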

Barnyard grass [7] = assay: Herbicidal activity test for indoor pre-emergence soil treatment; set-up: key: level 1-9; higher = more weed remaining vs blank control; details: 150 g a.i./ha, visual inspection 21 days after treatment
Summary of the method: as §1

Piemarker [8] = assay: as above; set-up: key: level 1-9; higher = more weed remaining vs blank control; details: 150 g a.i./ha, visual inspection 21 days after treatment
Summary of the method: as §1

green bristlegrass [9] = assay: as above; set-up: key: level 1-9; higher = more weed remaining vs blank control; details: 150 g a.i./ha, visual inspection 21 days after treatment
Summary of the method: as §1

Humulus scandens [10] = assay: as above; details: 150 g a.i./ha, visual inspection 21 days after treatment
Summary of the method: as §1

Barnyard grass [11] = assay: Herbicidal activity test for indoor post-emergence spraying on stems and leaves; set-up: key: grade level by weed remaining vs blank control, e.g. 5 = 10.1-15%; details: 150 g a.i./ha, visual inspection 21 days after treatment
Summary of the method: (§3)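 Greenhouse-grown weeds, post-emergence foliar spray (NY/T 1155.4-2006 method); visual scoring at 21 d post-treatment as levels vs. untreated blank control (e.g., level 5 = 10.1–15%, level 8 = 35.1–67.5% of control weed).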

Piemarker [12] = assay: as above; set-up: key: grade level by weed remaining vs blank control, e.g. 5 = 10.1-15%; details: 150 g a.i./ha, visual inspection 21 days after treatment
Summary of the method: as §3

Digitaria sanguinalis [13] = assay: as above; set-up: key: grade level by weed remaining vs blank control, e.g. 5 = 10.1-15%; details: 150 g a.i./ha, visual inspection 21 days after treatment
Summary of the method: as §3

Humulus scandens [14] = assay: as above; set-up: key: grade level by weed remaining vs blank control, e.g. 5 = 10.1-15%; details: 150 g a.i./ha, visual inspection 21 days after treatment
Summary of the method: as §3

Amaranthus retroflexus [15] = assay: as above; set-up: key: grade level by weed remaining vs blank control, e.g. 5 = 10.1-15%; details: 150 g a.i./ha, visual inspection 21 days after treatment
Summary of the method: as §3

green bristlegrass [16] = assay: as above; set-up: key: grade level by weed remaining vs blank control, e.g. 5 = 10.1-15%; details: 150 g a.i./ha, visual inspection 21 days after treatment
Summary of the method: as §3

Structure (SMILES) | Herbicidal Activity Digitaria sanguinalis (Digitaria sanguinalis [1]) | Herbicidal Activity Amaranthus retroflexus (Amaranthus retroflexus [2]) | Herbicidal activity 15 days after treatment Cyperaceae (Cyperaceae) | Herbicidal activity 30 days after treatment Cyperaceae (Cyperaceae) | Herbicidal activity 15 days after treatment Gramineae (Gramineae) | Herbicidal activity 30 days after treatment Gramineae (Gramineae) | Herbicidal activity 15 days after treatment Broadleaf weed (Broadleaf weed) | Herbicidal activity 30 days after treatment Broadleaf weed (Broadleaf weed) | Post-emergence weed control effect, Barnyard grass (Barnyard grass [3]) | Post-emergence weed control effect, Solanum nigrum (Solanum nigrum) | Post-emergence weed control effect, Convolvulus arvensis (Convolvulus arvensis) | Post-emergence weed control effect, Chenopodium album (Chenopodium album) | Post-emergence weed control effect, Goose grass (goosegrass) | Post-emergence weed control effect, Digitaria sanguinalis (Digitaria sanguinalis [4]) | Post-emergence weed control effect, Acalypha australis (Acalypha australis) | Post-emergence weed control effect, Nutgrass flatsedge (nutgrass flatsedge) | Post-emergence weed control effect, Portulaca oleracea (Portulaca oleracea) | Post-emergence weed control effect, Amaranthus retroflexus (Amaranthus retroflexus [5]) | Post-emergence weed control effect, Green bristlegrass (green bristlegrass [6]) | Herbicidal Activity Barnyard grass (Barnyard grass [7]) | also measured
COc1ccc(OC)c(C(=O)NCc2cccc(C)c2)c1 [Compound A35] | 2 (equivalent to 0 to 2.5% of the weed in the blank control area) | 1 | 1 | 2 (equivalent to 0 to 2.5% of the weed in the blank control area) | 2 (equivalent to 0 to 2.5% of the weed in the blank control area) | 1 | 1 | 2 (equivalent to 0 to 2.5% of the weed in the blank control area) | 1 | 2 (equivalent to 0 to 2.5% of the weed in the blank control area) | 2 (equivalent to 0 to 2.5% of the weed in the blank control area) | 1 | 2 (equivalent to 0 to 2.5% of the weed in the blank control area) | 2 (equivalent to 0 to 2.5% of the weed in the blank control area) | 2 (equivalent to 0 to 2.5% of the weed in the blank control area) | 2 (equivalent to 0 to 2.5% of the weed in the blank control area) | 1 | 1 | 2 (equivalent to 0 to 2.5% of the weed in the blank control area) | 1 | Herbicidal Activity Piemarker (Piemarker [8]): 1; Herbicidal Activity Green bristlegrass (green bristlegrass [9]): 1; Herbicidal Activity Humulus scandens (Humulus scandens [10]): 2 (equivalent to 0 to 2.5% of the weed in the blank control area); Herbicidal Activity Barnyard grass (Barnyard grass [11]): 1; Herbicidal Activity Piemarker (Piemarker [12]): 1; Herbicidal Activity Digitaria sanguinalis (Digitaria sanguinalis [13]): 1; Herbicidal Activity Humulus scandens (Humulus scandens [14]): 1; Herbicidal Activity Amaranthus retroflexus (Amaranthus retroflexus [15]): 1; Herbicidal Activity Green bristlegrass (green bristlegrass [16]): 1
COc1ncccc1C(=O)NCc1cccc(C)c1 [Compound A85] | 1 | 2 (equivalent to 0 to 2.5% of the weed in the blank control area) | 1 | 1 | 2 (equivalent to 0 to 2.5% of the weed in the blank control area) | 1 | 1 | 1 | 1 | 2 (equivalent to 0 to 2.5% of the weed in the blank control area) | 1 | 1 | 2 (equivalent to 0 to 2.5% of the weed in the blank control area) | 2 (equivalent to 0 to 2.5% of the weed in the blank control area) | 1 | 2 (equivalent to 0 to 2.5% of the weed in the blank control area) | 1 | 1 | 1 | 1 | Herbicidal Activity Piemarker (Piemarker [8]): 1; Herbicidal Activity Green bristlegrass (green bristlegrass [9]): 1; Herbicidal Activity Humulus scandens (Humulus scandens [10]): 3 (equivalent to 2.6 to 5% of the weed in the blank control area); Herbicidal Activity Barnyard grass (Barnyard grass [11]): 1; Herbicidal Activity Piemarker (Piemarker [12]): 1; Herbicidal Activity Digitaria sanguinalis (Digitaria sanguinalis [13]): 1; Herbicidal Activity Humulus scandens (Humulus scandens [14]): 1; Herbicidal Activity Amaranthus retroflexus (Amaranthus retroflexus [15]): 1; Herbicidal Activity Green bristlegrass (green bristlegrass [16]): 1
